Source: ChEMBL document CHEMBL1132945, “Ethylene glycol and amino acid derivatives of 5-aminolevulinic acid as new photosensitizing precursors of protoporphyrin IX in cells” (J Med Chem, 2000)

Tests used:
HCEC = assay: Cytotoxicity against HCEC cells; No cytotoxicity; assay type: functional, cell-based; settings: Homo sapiens
A549 = assay: Cytotoxicity against A549 cells; No cytotoxicity; assay type: functional, cell-based; settings: Homo sapiens

Compound	Cytotoxicity (HCEC)	Cytotoxicity (A549)
CCOCCOCCOCCOC(=O)CCC(=O)CN	No cytotoxicity	No cytotoxicity
CCOCCOC(=O)CCC(=O)CN	No cytotoxicity	No cytotoxicity
CCOCCOCCOC(=O)CCC(=O)CN	No cytotoxicity	No cytotoxicity
COCCOC(=O)CCC(=O)CN	No cytotoxicity	No cytotoxicity
